Peptide text beside a SMILES is read from it. * marks the point of attachment. X1 = C=CC(=O)NCCCCC(NC(=O)OCc1ccccc1)C(=O)N1CCN(C(=O)C(CCC(=O)*)NC(=O)c2cccc3ccccc23)CC1

For one data set, the target named is T1, Recombinant human TG2 (Homo sapiens, UniProt P21980).
T1 construct: GST (with PSP protease site, plasmid pGST-PSP-rhTG2) (N, cleaved yes); made in house; host or cells: E. coli (BL21)
T1 sequence (P21980 1-687): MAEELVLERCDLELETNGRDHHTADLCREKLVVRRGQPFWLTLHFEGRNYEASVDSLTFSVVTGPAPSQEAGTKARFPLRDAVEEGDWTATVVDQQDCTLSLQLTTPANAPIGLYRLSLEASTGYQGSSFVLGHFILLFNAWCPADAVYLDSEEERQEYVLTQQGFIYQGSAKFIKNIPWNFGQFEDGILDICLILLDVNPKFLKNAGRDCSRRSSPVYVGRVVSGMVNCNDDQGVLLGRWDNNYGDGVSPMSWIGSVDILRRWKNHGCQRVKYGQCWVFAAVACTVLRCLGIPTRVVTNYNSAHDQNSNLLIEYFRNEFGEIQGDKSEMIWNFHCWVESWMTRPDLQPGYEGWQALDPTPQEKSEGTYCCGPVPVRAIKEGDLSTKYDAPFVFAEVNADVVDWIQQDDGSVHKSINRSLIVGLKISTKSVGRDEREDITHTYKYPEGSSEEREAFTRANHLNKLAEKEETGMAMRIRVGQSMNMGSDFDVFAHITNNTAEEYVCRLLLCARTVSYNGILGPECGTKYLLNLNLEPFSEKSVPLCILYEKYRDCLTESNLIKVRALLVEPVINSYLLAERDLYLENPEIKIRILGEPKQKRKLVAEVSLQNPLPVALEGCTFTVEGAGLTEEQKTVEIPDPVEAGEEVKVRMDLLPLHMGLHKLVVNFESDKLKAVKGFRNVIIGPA
Description: rhTG2 inhibition assay, continuous chromogenic substrate AL5, Kitz and Wilson conditions. Format: biochemical. Conditions: for kinact / Ki: * compounds fitted to double reciprocal model, 25 °C, pH 6.9, 100 µM AL5; for kinact/KI: * double reciprocal model, ** lowest concentrations of saturation plot fitted to a linear model; for Ki: irreversible inhibition. The text has this: Relative to the original scaffold, we expected the potency of these novel chemical biology tools to decrease slightly, due to the additional bulk incorporated on the glutamate sidechain. Although we expected the sidechain moiety to be directed into bulk solvent, we were concerned that its mass and charge would disfavor the binding interaction. Therefore, we kinetically characterized these probes as rigorously as possible, in order to determine their relative affinity and reactivity. For most inhibitors we have made, including the parent inhibitor AA9 (Figure 1), we have been able to measure kinetic parameters under Kitz and Wilson conditions. This experimental approach is based on the use of a continuous activity assay and the measurement of first-order rate constants for the time-dependent inactivation of enzyme (see Figure 2A and Figures S1–S5 in Supplementary Materials). The dependence of these observed rate constants (kobs) on the inhibitor concentration divided by alpha ([I]/α) can then be fitted to a hyperbolic saturation model where the upper plateau represents the rate constant of inactivation (kinact), and the concentration providing half the rate constant of inactivation represents KI (Figure 2B). […] To compensate for this, the overall efficiency of the inhibitor (kinact/KI) can be derived from the slope of the linear region of the saturation plot (Figure 2C). To gauge the individual parameters, a double reciprocal fitting was also employed where KI can be calculated from the x-axis intercept and kinact can be calculated from the y-axis intercept (Figure 2D).
Recombinant human TG2 was expressed and purified using previously published protocols. The inhibition was monitored using a continuous chromogenic substrate AL5 [38] under Kitz and Wilson conditions. In brief, 125 µL of assay buffer composed of 111.11 mM MOPS, 15.56 CaCl2 pH 6.9 was added to a 1.5 mL Eppendorf tube to achieve final assay concentrations of 50 mM MOPS and […] CaCl2. To the tube was then added the respective concentration of inhibitor from an aqueous working stock (<5% DMSO final conditions). Various volumes of water were then added to ensure the final volumes were equal. The AL5 substrate was added to the Eppendorf tube as a 5 µL 5.56 mM solution in DMSO to obtain a final assay concentration of 100 µM. A 96-well polystyrene microplate then had 180 µL of the assay mixture added to it. The enzymatic reaction was finally initiated by addition of 20 µL 5 mU prediluted TG2 in assay buffer using a multichannel pipette. The reaction was monitored at 405 nm using a BioTek Synergy 4 plate reader for 20 min at 25 °C. A positive control with no inhibitor and a blank with no enzyme nor inhibitor were also included. The blank subtracted kinetic curves were then analyzed. The observed first-order rate constants of inactivation were gathered through a one-phase association model using the GraphPad software package. The rate constants were then fit to various models to elucidate the inhibition parameters. If saturation was achieved, they were fit to a saturation model versus the inhibitor concentration divided by alpha (where α=1+Substrate/Km ). A linear regression of the linear region of this saturation fitting was calculated to obtain a ratio of kinact/KI. A further double reciprocal model was used if saturation could not be observed due to the limitations in sensitivity of the assay or if solubility issues were present.

The nature of a further data set: PAMPA test. Format: in vitro ADME. As to conditions: compound not detected in receptor compartment, limit of detection reported. The source says:
The cell-impermeable inhibitors 17 and 18 were designed to violate virtually all of the rules for cellular permeability described by Lipinski and Veber. They were also empirically evaluated with respect to their pharmacokinetic properties, in particular to determine their cell permeability. In a PAMPA test, the −Log Pe values were very high (Table 2). […] Indeed, neither compound was even detected in the receptor compartment for the PAMPA, resulting in the lower limit of detection being reported as an approximate value.

`C=CC(=O)NCCCCC(NC(=O)OCc1ccccc1)C(=O)N1CCN(C(=O)C(CCC(=O)NCCCCCC(=O)NC(CC(=O)O)C(=O)NC(CC(=O)O)C(=O)NC(CC(=O)O)C(=O)O)NC(=O)c2cccc3ccccc23)CC1` (centres unmarked) [Compound 17]: on Recombinant human TG2, the kinact is 0.0065 s⁻¹, the kinact/KI was 6820 M⁻¹ s⁻¹ and the Ki amounted to 1000 ± 300 nM. In “PAMPA test”, the “−Log Pe” value was above 9.02.
For `C=CC(=O)NCCCCC(NC(=O)OCc1ccccc1)C(=O)N1CCN(C(=O)C(CCC(=O)NCC(=O)NCC(=O)NCC(=O)NC(CC(=O)O)C(=O)NC(CC(=O)O)C(=O)NC(CC(=O)O)C(=O)O)NC(=O)c2cccc3ccccc23)CC1` (centres unmarked) [Compound 18] (X1-GGGDDD-OH; configuration not given here), in that order: 0.0388 s⁻¹, 9380 M⁻¹ s⁻¹, 4100 ± 2100 nM and above 8.79.

The term kinact denotes the rate constant of inactivation at saturating inhibitor. By kinact/KI is commonly meant the maximal inactivation rate divided by the concentration that gives half of it.
